Measured values from US12285399B2, “Composition comprising bornyl acetate or pharmaceutically acceptable salt thereof as active ingredient for prevention or treatment of stress-related disorder” (UNIVERSITY-INDUSTRY COOPERATION GROUP OF KYUNG HEE …, priority 2019, dated 2025).

Assays:
COX-2 protein = experiment: Western blot of COX-2 protein in brain (hippocampus and amygdala) of CRS model; type: in vivo, C57BL/6NTac mice; settings: CRS+BA group
Procedure: In order to confirm the antidepressant efficacy of bornyl acetate on the animal model of stress depression, an animal model of depression induced by chronic restrained stress (CRS) was prepared. Specifically, the animal model, 8-week-old male C57BL/6NTac mice after birth (Narabiotechnology, Korea; weight 22-24 g) had been stabilized for 1 week. A 50 ml conical tube (SPL Life sciences, Pocheon, Korea) was punched to make a hole, thereby making a restraint frame. The mice were put in the frame and restrained for 2 hours every day for 14 days. After restraint, the mice were allowed to freely ingest water and food in the home cage. The hippocampus and amygdala of the brain were excised. They were added to 200 μl of a protein lysis buffer (10 mM Tris, 0.5 mM EDTA, 0.25 M sucrose), and proteins were isolated using a grinder. The isolated protein was quantified by the Bradford method (Bio-rad, USA) using bovine serum albumin (BSA, Sigma, USA), and then 25 μg of the protein was separated by 10% sodium dodecyl sulfate-polyacrylamide gel electrophoresis (SDS-PAGE) and transferred to polyvinylidene difluoride (PVDF) membrane (Gendepot, UK). PVDF membranes were blocked in 5% skimmed milk (BD, USA) for 1 hour. […] Identification and quantitative analysis of proteins were analyzed using an imaging device ChemiDoc XRS+ (Bio-Rad). […]

COX-2 mRNA = experiment: RT-PCR of COX-2 mRNA in brain (hippocampus and amygdala) of CRS model; type: in vivo, C57BL/6NTac mice; settings: CRS+BA group, 100 mg/kg oral
Procedure: In order to confirm the antidepressant efficacy of bornyl acetate on the animal model of stress depression, an animal model of depression induced by chronic restrained stress (CRS) was prepared. Specifically, the animal model, 8-week-old male C57BL/6NTac mice after birth (Narabiotechnology, Korea; weight 22-24 g) had been stabilized for 1 week. A 50 ml conical tube (SPL Life sciences, Pocheon, Korea) was punched to make a hole, thereby making a restraint frame. The mice were put in the frame and restrained for 2 hours every day for 14 days. After restraint, the mice were allowed to freely ingest water and food in the home cage.
In order to confirm the inhibitory effect of bornyl acetate on the expression of inflammatory mediators in an animal model of depression induced by chronic restrained stress, mRNA expression was confirmed using reverse transcription-polymerase chain reaction (RT-PCR). Bornyl acetate (100 mg/kg) was orally administered 1 hour before inducing the restrained stress every day. […]
Western blot and RT-PCR analysis were performed in the brain (hippocampus and amygdala) of an animal model of chronic restrained stress (CRS)-induced stress depression to exam and quantify the activation level of inflammatory mediators, thereby verifying the modulating effect of bornyl acetate on the inflammatory response in the brain. […]

CC(=O)OC1CC2CCC1(C)C2(C)C (stereo not shown) [BA, bornyl acetate]
significantly inhibited: protein expression of COX-2 (CRS-induced increase) (COX-2 protein; amygdala) | protein expression of COX-2 (CRS-induced increase) (COX-2 protein; hippocampus) | mRNA expression of COX-2 (CRS-induced increase) (COX-2 mRNA; amygdala) | mRNA expression of COX-2 (CRS-induced increase) (COX-2 mRNA; hippocampus)
